According to patent US9550763B2, “Heterocyclic ring and carbocyclic derivative” (Shionogi & Co., Ltd., priority 2012, dated 2017):

Target: human P2X3 receptor (Homo sapiens (Human), UniProt P56373)
Assay: Evaluation of human P2X3 receptor inhibitory activity (Test Example 1-2, FLIPR 384, 384-well, 150 nM ATP)
Type: cell-based
Conditions: human P2X3 receptor in C6BU-1 cells; Test Example 1-2 (compounds I-301 to I-483); read-out: P2X3 IC50
Procedure: Stably expressing cell line (C6BU-1 cell transfected with human P2X3 receptor gene (GenBank accession number Y07683) was used. The cells were seeded in a 384-well microtiter plate at a concentration of 3000 cells/well and cultured in the medium (7.0% fetal bovine serum, 7.0% horse serum, 1% antibiotic and antifungal in DMEM) for one day at 37° C. under 5% carbon dioxide atmosphere. The medium was replaced with 4 μM Fluo-3-AM solution (20 mM HEPES, […], 5.27 mM KCl, 0.9 mM MgCl2, 1.26 mM CaCl2, 5.6 mM D-glucose, 2.5 mM probenecid, 0.5% BSA, and 0.04% Pluronic F-127, pH 7.5) and incubated at 37° C. under 5% dioxide carbon atmosphere for one hour. The plate was washed with washing buffer (20 mM HEPES, 137 mM NaCl, 5.27 mM KCl, 0.9 mM MgCl2, 1.26 mM CaCl2, 5.6 mM D-glucose, 2.5 mM probenecid, pH7.5), and each well was added with 20 μL of this buffer. The plate was placed in High-Throughput Screening System FLIPR 384 (Molecular Device Co.). Measurement of fluorescence intensity by FLIPR 384 was started, and 20 μL of DMSO solutions containing different concentrations of the test compound as prepared by dilution with dilution buffer (20 mM HEPES, 137 mM NaCl, 5.27 mM KCl, 0.9 mM MgCl2, 1.26 mM CaCl2, 5.6 mM D-glucose, 2.5 mM probenecid, 0.1% Pluronic F-127, pH 7.5) were dispensed to each well through the built-in automatic dispenser. Five minutes after, 150 nM ATP solution (25 μL) prepared by dilution with the dilution buffer was dispensed through the built-in automatic dispenser, and the measurement of fluorescence intensity was continued for 4 min. For each well, the specific maximum fluorescence intensity was calculated as the ratio of the maximum fluorescence intensity after addition of the ATP solution to the fluorescence intensity at the starting of the measurement. The 50% inhibitory concentration (IC50) was calculated under the assumption that the specific maximum fluorescence intensity without test compound is 0% inhibition and that the specific maximum fluorescence intensity when the dilution buffer was added in place of ATP solution is 100% inhibition, to evaluate the inhibitory activity of the test compound. The specific maximum fluorescence intensity and IC50 were calculated using Spotfire (Science & Technology Systems, Inc.)
The data of the compounds I-001 to I-300 are the results by the method mentioned in Test Example 1-1, and the data of the compounds I-301 to I-483 are the results by the method mentioned in Test Example 1-2.

Chain of human P2X3 receptor (P56373 whole entry): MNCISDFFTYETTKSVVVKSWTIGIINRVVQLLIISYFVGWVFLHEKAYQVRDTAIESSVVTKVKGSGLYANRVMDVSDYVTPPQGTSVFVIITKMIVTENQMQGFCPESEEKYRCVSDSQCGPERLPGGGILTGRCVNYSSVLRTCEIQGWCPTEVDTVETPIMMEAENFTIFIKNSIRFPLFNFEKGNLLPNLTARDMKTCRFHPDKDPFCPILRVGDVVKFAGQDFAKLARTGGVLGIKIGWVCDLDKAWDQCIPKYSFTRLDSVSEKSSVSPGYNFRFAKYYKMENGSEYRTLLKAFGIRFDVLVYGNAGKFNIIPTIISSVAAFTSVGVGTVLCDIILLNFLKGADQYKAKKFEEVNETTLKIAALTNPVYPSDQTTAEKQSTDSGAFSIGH

In order of rising IC50:
1. CC(C)[C@H](NC(=O)c1cn(Cc2ccc(Cl)cc2)c(Nc2ccc(Oc3cccc(F)n3)cc2)nc1=O)C(N)=O [Compound I-380]  4 nM
2. C[C@H](NC(=O)c1cn(Cc2ccc(Cl)cc2)c(Nc2ccc(Oc3cccc(F)n3)cc2)nc1=O)C(N)=O [Compound I-381]  4 nM
3. O=C(NCC(=O)N1CCCCC1)c1cn(Cc2ccc(Cl)cc2)c(Nc2ccc(Oc3cccc(F)n3)cc2)nc1=O [Compound I-382]  9 nM
4. O=C(NC1CCOCC1)c1cn(Cc2ccc(F)cc2F)c(Nc2ccc(Oc3cccc(F)n3)cc2)nc1=O [Compound I-402]  9 nM
5. O=C(NC1CCNC1=O)c1cn(Cc2ccc(Cl)cc2)c(Nc2ccc(Oc3cccc(F)n3)cc2)nc1=O (stereo not drawn) [Compound I-389]  10 nM
6. O=C(N[C@H]1COC[C@@H]1O)c1cn(Cc2ccc(Cl)cc2)c(Nc2ccc(Oc3cccc(F)n3)cc2)nc1=O [Compound I-394]  11 nM
7. CC(C)c1c[nH]/c(=N\c2ccc(Oc3cncc(C(=O)O)c3)cc2)n(Cc2ccc(Cl)cc2)c1=O [Compound I-401]  12 nM
8. O=C(NC1CCCOC1)c1cn(Cc2ccc(Cl)cc2)c(Nc2ccc(Oc3cccc(F)n3)cc2)nc1=O (stereo not drawn) [Compound I-383]  13 nM
9. O=C(NC[C@H]1CCCO1)c1cn(Cc2ccc(Cl)cc2)c(Nc2ccc(Oc3cccc(F)n3)cc2)nc1=O [Compound I-387]  14 nM
10. O=C(NC[C@@H]1CCCO1)c1cn(Cc2ccc(Cl)cc2)c(Nc2ccc(Oc3cccc(F)n3)cc2)nc1=O [Compound I-386]  15 nM
11. CC1(NC(=O)c2cn(Cc3ccc(Cl)cc3)c(Nc3ccc(Oc4cccc(F)n4)cc3)nc2=O)CCOCC1 [Compound I-385]  16 nM
12. CC(C)c1c[nH]/c(=N\c2ccc(Oc3ccc(C(=O)O)cn3)cc2)n(Cc2ccc(Cl)cc2)c1=O [Compound I-400]  16 nM
13. Cn1ccc(NC(=O)c2cn(Cc3ccc(Cl)cc3)c(Nc3ccc(Oc4cccc(F)n4)cc3)nc2=O)n1 [Compound I-378]  20 nM
14. O=C(Nc1cn[nH]c1)c1cn(Cc2ccc(Cl)cc2)c(Nc2ccc(Oc3cccc(F)n3)cc2)nc1=O [Compound I-395]  22 nM
15. O=C(N[C@@H]1CCOC1)c1cn(Cc2ccc(Cl)cc2)c(Nc2ccc(Oc3cccc(F)n3)cc2)nc1=O [Compound I-398]  22 nM
16. O=C(NCC1CCOC1)c1cn(Cc2ccc(Cl)cc2)c(Nc2ccc(Oc3cccc(F)n3)cc2)nc1=O (stereo not drawn) [Compound I-396]  25 nM
17. O=C(NCC1CCCCO1)c1cn(Cc2ccc(Cl)cc2)c(Nc2ccc(Oc3cccc(F)n3)cc2)nc1=O (stereo not drawn) [Compound I-388]  29 nM
18. Cn1nccc1NC(=O)c1cn(Cc2ccc(Cl)cc2)c(Nc2ccc(Oc3cccc(F)n3)cc2)nc1=O [Compound I-391]  30 nM
19. O=c1c(-c2nnc(CO)o2)c[nH]/c(=N\c2ccc(Oc3ccon3)cc2)n1Cc1ccc(Cl)cc1 [Compound I-399]  36 nM
20. O=C(Nc1cnoc1)c1cn(Cc2ccc(Cl)cc2)c(Nc2ccc(Oc3cccc(F)n3)cc2)nc1=O [Compound I-397]  56 nM
21. O=C(NC1(CO)CCOCC1)c1cn(Cc2ccc(Cl)cc2)c(Nc2ccc(Oc3cccc(F)n3)cc2)nc1=O [Compound I-390]  59 nM
22. O=C(NCc1ncco1)c1cn(Cc2ccc(Cl)cc2)c(Nc2ccc(Oc3cccc(F)n3)cc2)nc1=O [Compound I-384]  60 nM
23. O=C(NCC1COCCO1)c1cn(Cc2ccc(Cl)cc2)c(Nc2ccc(Oc3cccc(F)n3)cc2)nc1=O (stereo not drawn) [Compound I-379]  96 nM
24. COc1cn(Cc2ccc(Cl)cc2)c(Nc2ccc(Oc3cccc(C(=O)O)n3)cc2)nc1=O [Compound I-404]  102 nM
25. O=C(NCC1CCCC1)c1cn(Cc2ccc(Cl)cc2)c(Nc2ccc(Oc3cccc(F)n3)cc2)nc1=O [Compound I-393]  110 nM
26. Cc1nc(CNC(=O)c2cn(Cc3ccc(Cl)cc3)c(Nc3ccc(Oc4cccc(F)n4)cc3)nc2=O)no1 [Compound I-392]  128 nM
27. COc1cn(Cc2ccc(Cl)cc2)c(Nc2ccc(Oc3cccc(C(N)=O)n3)cc2)nc1=O [Compound I-403]  243 nM
